According to the supplement of paper PMC10307832:

Assays:
Test in all cases: relative viability (nuclei count vs DMSO), 5 days (fraction); higher = more cells survive
[1] = compound: C1CNCCC1C2=CC(=NN2)C3=CC=NC=C3 + CS(=O)(=O)CCNCc1ccc(-c2ccc3ncnc(Nc4ccc(OCc5cccc(F)c5)c(Cl)c4)c3c2)o1 [Lapatinib] (partner 2 µM)
Method in brief: (§1)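 The day after seeding in 1536-well plates, lung cancer cell lines were treated by pin tool with a single drug, or with a fixed anchor-drug dose together with five library-drug doses (not always all listed) in √10 steps. After 5 days, a combined fix-and-stain solution (final 0.05% Triton X-100, 1% formaldehyde, 1 ug/ml Hoechst) was added. Nuclei counted on 4× images gave relative viability as treated counts over vehicle counts, reported as the median of duplicate plates.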

Tanzisertib + Trametinib = compound: O[C@H]1CC[C@H](Nc2ncc3nc(Nc4c(F)cc(F)cc4F)n([C@H]4CCOC4)c3n2)CC1 [Tanzisertib] + CC(=O)Nc1cccc(-n2c(=O)n(C3CC3)c(=O)c3c(Nc4ccc(I)cc4F)n(C)c(=O)c(C)c32)c1 [Trametinib] (partner 0.02 µM)
Method in brief: as §1

[2] = compound: O[C@H]1CC[C@H](Nc2ncc3nc(Nc4c(F)cc(F)cc4F)n([C@H]4CCOC4)c3n2)CC1 [Tanzisertib] + CC(=O)c1c(C)c2cnc(Nc3ccc(N4CCNCC4)cn3)nc2n(C2CCCC2)c1=O [Palbociclib] (partner 0.5 µM)
Method in brief: as §1

Tanzisertib + Crizotinib = compound: O[C@H]1CC[C@H](Nc2ncc3nc(Nc4c(F)cc(F)cc4F)n([C@H]4CCOC4)c3n2)CC1 [Tanzisertib] + C[C@@H](Oc1cc(-c2cnn(C3CCNCC3)c2)cnc1N)c1c(Cl)ccc(F)c1Cl [Crizotinib] (partner 1 µM)
Method in brief: as §1

Cell Line | relative viability ([1]; first compound 0.08 µM) | relative viability ([1]; first compound 0.8 µM) | relative viability ([1]; first compound 2.53 µM) | relative viability ([1]; first compound 8 µM) | relative viability (Tanzisertib + Trametinib; first compound 0.08 µM) | relative viability (Tanzisertib + Trametinib; first compound 0.253 µM) | relative viability (Tanzisertib + Trametinib; first compound 0.8 µM) | relative viability (Tanzisertib + Trametinib; first compound 2.53 µM) | relative viability (Tanzisertib + Trametinib; first compound 8 µM) | relative viability ([2]; first compound 0.08 µM) | relative viability ([2]; first compound 0.253 µM) | relative viability ([2]; first compound 0.8 µM) | relative viability ([2]; first compound 2.53 µM) | relative viability ([2]; first compound 8 µM) | relative viability (Tanzisertib + Crizotinib; first compound 0.08 µM) | relative viability (Tanzisertib + Crizotinib; first compound 0.253 µM) | relative viability (Tanzisertib + Crizotinib; first compound 0.8 µM) | relative viability (Tanzisertib + Crizotinib; first compound 2.53 µM) | relative viability (Tanzisertib + Crizotinib; first compound 8 µM)
NCI-H2170 | 0.247 | 0.28 | 0.269 | 0.291 | 0.989 | 0.965 | 0.927 | 0.926 | 0.874 | 0.415 | 0.39 | 0.36 | 0.428 | 0.406 | 1.42 | 1.18 | 1.16 | 1.09 | 1.02
HCC-366 | 0.864 | 1.13 | 1.04 | 1.04 | – | 0.39 | 0.376 | 0.292 | 0.258 | – | 0.395 | 0.424 | 0.368 | 0.384 | 0.651 | 0.523 | 0.671 | 0.492 | 0.515
NCI-H2347 | 0.956 | 0.735 | 0.977 | 0.996 | 0.256 | 0.255 | 0.261 | 0.259 | 0.29 | 0.466 | 0.457 | 0.452 | 0.444 | 0.435 | 0.675 | 0.765 | 0.739 | 0.945 | 0.827
COR-L 105 | 0.32 | 0.34 | 0.389 | 0.363 | 0.43 | 0.493 | 0.485 | 0.448 | 0.37 | 0.411 | 0.4 | 0.407 | 0.417 | 0.39 | 0.81 | 0.986 | 0.822 | 0.855 | 0.622
201T | 0.975 | 0.978 | 0.994 | 0.986 | 0.731 | 0.756 | 0.701 | 0.806 | 0.764 | 0.369 | 0.375 | 0.35 | 0.342 | 0.334 | 1.04 | 1.04 | 1.02 | 1.05 | 0.996
NCI-H2126 | 0.738 | 0.752 | 0.812 | 0.741 | 0.56 | 0.597 | 0.611 | 0.546 | 0.59 | 0.34 | 0.355 | 0.349 | 0.37 | 0.324 | 1.09 | 1.01 | 1.03 | 0.985 | 1.03
LC-2-ad | 1.04 | 1.05 | 1 | 0.914 | 1 | 0.915 | 0.973 | 0.932 | 0.877 | 0.484 | 0.548 | 0.471 | 0.441 | 0.502 | 0.521 | 0.501 | 0.415 | 0.43 | 0.426
NCI-H2085 | 0.877 | 0.51 | 0.819 | 0.772 | – | 0.604 | 0.436 | 0.556 | 0.491 | – | 0.456 | 0.454 | 0.455 | 0.505 | 0.875 | 0.805 | 0.819 | 0.889 | 0.93
NCI-H358 | 0.388 | 0.463 | 0.43 | 0.462 | 0.141 | 0.134 | 0.151 | 0.155 | 0.133 | 0.129 | 0.134 | 0.127 | 0.127 | 0.148 | 0.748 | 0.716 | 0.511 | 0.506 | 0.485
H3255 | 0.265 | 0.255 | 0.262 | 0.261 | 0.696 | 0.646 | 0.766 | 0.726 | 0.523 | 0.297 | 0.301 | 0.327 | 0.336 | 0.31 | 0.933 | 0.855 | 1.01 | 0.875 | 0.662
NCI-H2228 | 0.926 | 1.06 | 1.62 | 1.19 | 0.581 | 0.34 | 0.806 | 0.362 | 0.259 | 1.12 | 0.818 | 0.684 | 0.741 | 0.655 | 0.53 | 0.458 | 0.475 | 0.465 | 0.351
CAL-12T | 0.714 | 0.613 | 0.811 | 0.666 | 0.317 | 0.336 | 0.396 | 0.387 | 0.432 | 0.486 | 0.447 | 0.539 | 0.422 | 0.279 | 0.677 | 0.715 | 0.684 | 0.547 | 0.686
A-427 | 1.12 | 1.15 | 0.971 | 0.978 | 0.813 | 0.745 | 0.742 | 0.736 | 0.751 | 0.565 | 0.538 | 0.52 | 0.507 | 0.511 | 0.995 | 0.85 | 0.931 | 0.902 | 0.846
HARA | 0.755 | 0.874 | 0.736 | 0.701 | 0.801 | 0.692 | 0.689 | 0.711 | 0.687 | 0.247 | 0.313 | 0.257 | 0.193 | 0.267 | 1.12 | 1.05 | 1.06 | 1.06 | 1.08
